These results are taken from article PMC6383986, “Fragment-Based Covalent Ligand Screening Enables Rapid Discovery of Inhibitors for the RBR E3 Ubiquitin Ligase HOIP” (Journal of the American Chemical Society, 2019).

Structures are written as SMILES. “Also recorded” adds a separate entry of the source.

One experiment addresses T1, HOIP RBR domain (Homo sapiens, UniProt Q96EP0).
T1 construct: made in house; host or cells: E. coli BL21-GOLD(DE3)
T1 sequence (Q96EP0 697-1072): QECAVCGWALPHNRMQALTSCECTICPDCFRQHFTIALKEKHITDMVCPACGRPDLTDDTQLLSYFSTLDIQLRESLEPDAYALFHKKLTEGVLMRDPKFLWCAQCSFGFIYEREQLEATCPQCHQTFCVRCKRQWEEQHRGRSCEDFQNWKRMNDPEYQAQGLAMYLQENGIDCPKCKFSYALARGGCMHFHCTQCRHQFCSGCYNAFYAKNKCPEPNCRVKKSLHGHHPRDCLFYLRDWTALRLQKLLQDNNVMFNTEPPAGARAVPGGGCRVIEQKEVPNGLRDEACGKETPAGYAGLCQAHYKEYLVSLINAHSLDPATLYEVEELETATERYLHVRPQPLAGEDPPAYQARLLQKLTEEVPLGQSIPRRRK
Briefly: In vitro polyubiquitination assay. The following applies: HOIP RBR preincubated with compound (200 μM) overnight; E2 UbcH7 or UbcH5c; vs DMSO. It counts as biochemical. As to the method: 4.3 Polyubiquitination assay
The ubiquitination assay was essentially carried out as previously described.12 The HOIP RBR domain was pre-incubated with compounds (5) or (6), or DMSO in 50 mM HEPES, 150 mM NaCl, pH 7.5 buffer at 23 °C with gentle shaking for overnight (20-24 h). E1, E2 (UbcH7 or UbcH5c), ubiquitin, and MgCl2 were added to each vial, and aliquots of 15 µL were withdrawn to mark time zero. ATP was then added and aliquots of 15 µL were withdrawn after 5, 15, 30, and 60 min incubation. Final concentrations: E1 (1 µM), E2 (5 µM), E3 (5 µM), compounds (200 µM), DMSO (1%), ubiquitin (40 µM), MgCl2 (20 mM), ATP (10 mM); reaction volume 100 µL. The aliquots were analyzed by SDS PAGE (Figure 4A and Supplementary Figure S9) as described below (section

Experiment [1] has as its target T2, 3 × FLAG-tagged HOIP RBR domain in HEK293T cells (Homo sapiens, UniProt Q96EP0).
T2 construct: expressed in transfected cells; host or cells: HEK293T, transient, modified pcDNA3.1(+)
In words: In-cell labeling, FLAG-IP, tryptic digest and LC-MS/MS. It counts as cell-based. The following applies: 30 μM, 8 h. The method, then:
Transfection and compound treatment
At approximately 40% confluency, as judged by visual inspection by microscope, cells were transfected by mixing Optimem (Gibco) with the relevant pcDNA3.1 construct (3 µg; 3×FLAG HOIP RBR, 3×FLAG HOIP RBR C885A or mock) and FuGENE transfection reagent (9 µL, vortexed prior to use; Promega) respectively. The solutions were mixed thoroughly and incubated at room temperature for 15 min, then added dropwise and the media was swirled gently to ensure homogenous mixing. The cells were incubated at 37 °C (Binder) for 48 h. Fresh DMEM media supplemented with 1% v/v FBS (Biosera) and 1% v/v L-glutamine/penicillin/streptomycin (Sigma-Aldrich) was aliquoted into 15 mL Falcon tubes (typically 8 mL/tube). […]
The lysates were clarified by centrifugation (Heraeus Fresco 17) at 17 000 × g, 4 °C for 20 min and the pellet discarded. The protein concentration was determined using the BCA assay (see […]
The protein concentrations of the clarified lysates were normalized with reaction buffer (50 mM Tris-HCl, pH 7.5, 1.5 mM MgCl2, 150 mM NaCl, 1 mM Na3VO4, complete protease inhibitor) to 1.0 mg/mL (final volume 400 µL, and <0.1% IGEPAL-CA630). […] One set of beads were denatured in 2× LDS loading buffer and analyzed by SDS PAGE and Western blot (FLAG antibody, Supplementary Figure S12) as described in […]

Turning to `COC(=O)/C=C/CNC(=O)c1cc2c([nH]c1=O)CCC2` [Compound 5], the polyubiquitin chain formation entry at HOIP RBR domain was “fully abolished chain formation; also recorded: complete inhibition of polyubiquitin chain formation”.

In the case of `COC(=O)/C=C/CNC(=O)c1cc2c([nH]c1=O)CCCC2` [Compound 11a], the “in-cell labeling of HOIP RBR at C885” value in experiment [1] is “significantly labeled; also recorded: significant labeling”.
